Measured values from patent publication US5470950A, “Biologically active amphiphilic peptide compositions and uses therefor” (Magainin Pharmaceuticals Inc., priority 1994, dated 1995).
Ends that are not written are not given here.

Columns and labels:
Assay in all cases: Antibacterial MIC assay (NCCLS M7-T2 microtiter broth dilution)
Format in all cases: cell-based
[1] = tested on: S. aureus strain ATCC 25923; details: S. aureus ATCC 25923; Mueller Hinton broth, 16-20 hours at 37° C.; lowest concentration giving a clear well
Excerpt: (§1) Table I, which follows, indicates the Minimal Inhibitory Concentration (MIC) in μg/ml of Peptides (SEQ ID NO:1) through (SEQ ID NO:3), (SEQ ID NO:5), (SEQ ID NO:6), (SEQ ID NO:9) through (SEQ ID NO:11), and (SEQ ID NO:17) against S.aureus strain ATCC 25923, P. aeruginosa strain ATCC 27853, and E.coli ATCC strain 25922. The procedure for the antibacterial assay is based upon the guidelines of the National Committee for Clinical Laboratory Standards, Document M7-T2, Volume 8, No. 8, 1988. Stock solutions of peptides (SEQ ID NO: 1) through (SEQ ID NO:3), (SEQ ID NO:5), (SEQ ID NO:S), (SEQ ID NO:9) through (SEQ ID NO:12), and […] in accordance with the present invention are prepared at a concentration of 512 μg/ml in sterile deionized distilled water and stored at -70° C. Each peptide is a C-terminal amide and may or may not be acetylated at the N-Terminus. An acetyl group at the N-terminus is indicated by an X. The stock peptide solution is diluted in serial dilutions (1:2) down the wells of a microtiter plate so that the final concentrations of peptides in the wells are 0.25, 0.50, i, 2,4, 8, 16, 32, 64, 128, and 256 μg/ml. 1-5×10^5 CFUs/ml of either S. aureus ATCC 25923, E. coli ATCC 25922, or P. aeruginosa ATCC 27853 were added to the wells in full strength Mueller Hinton broth (BBL 11443) from a mid-log culture. The inoculum is standardized spectrophotometrically at 600 nm and is verified by colony counts. The plates are incubated for 16-20 hours at 37° C., and the minimal inhibitory concentration (MIC) for each peptide is determined. Minimal inhibitory concentration is defined as the lowest concentration of peptide which produces a clear well in the microtiter plate. The minimal inhibitory concentration of each of (SEQ ID NO:1) through (SEQ ID NO:3), (SEQ ID NO:5), (SEQ ID NO:6), (SEQ ID NO:9) through (SEQ ID NO:11), and (SEQ ID NO:17) is given in Table I below.

E.coli ATCC strain 25922 = details: E. coli ATCC 25922; Mueller Hinton broth, 16-20 hours at 37° C.; lowest concentration giving a clear well
Excerpt: as §1

[2] = tested on: P. aeruginosa strain ATCC 27853; details: P. aeruginosa ATCC 27853; Mueller Hinton broth, 16-20 hours at 37° C.; lowest concentration giving a clear well
Excerpt: as §1

Row | Substance | Minimal Inhibitory Concentration S. aureus [1] | Minimal Inhibitory Concentration E. coli (E.coli ATCC strain 25922) | Minimal Inhibitory Concentration P. aeruginosa [2]
1 | Ac-LLKKLKKLLKLL-NH2 [X-(SEQ ID NO: 2)-NH2] | 16 µg/mL | 8,16 μg/ml | 16 µg/mL
2 | Ac-LKKLLKKLKKL-NH2 [X-(SEQ ID NO: 17)-NH2] | 256 µg/mL | 32,64 μg/ml | 8,16 μg/ml
3 | Ac-LKLLKKLLKKNKKLLKKL-NH2 [X-(SEQ ID NO: 9)-NH2] | 16 µg/mL | 64 µg/mL | 8 µg/mL
4 | KLLKKLKKLLKLL-NH2 [(SEQ ID NO.:3)-NH2] | 64 µg/mL | – | 16 µg/mL
5 | Ac-LKLLKKLLKKPKKLLKKL-NH2 [X-(SEQ ID NO: 10)-NH2] | 16,32 μg/ml | 64 µg/mL | 16 µg/mL
6 | Ac-LKKLKKLLKLL-NH2 [X-(SEQ ID NO: 1)-NH2] | 16 µg/mL | 4 µg/mL | 4,8 μg/ml
7 | LLKKLKKLLKLL-NH2 [(SEQ ID NO.:2)-NH2] | 16 µg/mL | 8,16 μg/ml | 16 µg/mL
8 | Ac-KLLKKLKKLLKLL-NH2 [X-(SEQ ID NO: 3)-NH2] | 64 µg/mL | 8,16 μg/ml | 16 µg/mL
9 | LKKLKKLLKLL-NH2 [(SEQ ID NO.: 1)-NH2] | 64,128 μg/ml | 8,16 μg/ml | 8,16 μg/ml
10 | LKKLLKKLKKL-NH2 [(SEQ ID NO: 17)-NH2] | > 256 µg/mL | 64,128 μg/ml | 32,64 μg/ml
11 | Ac-KKLLKKLKKLLKKLRR-NH2 [X-(SEQ ID NO: 5)-NH2] | 4 µg/mL | 32 µg/mL | 8 µg/mL
